Data taken from patent US8937152B2, “Non-selective somatostatin analogues” (Italfarmaco SpA, priority 2007, dated 2015).
Read-outs that look alike come from different tables or passages of the source. *1 amine or outer side, *2 acyl side, *3 side chain or, on linkers, in order; H or OH if unused. Where a SMILES comes first, the peptide text is derived from it. Side-chain parts run from the residue outwards. [ ]: non-standard residue; d: D form. The star is where a group is joined. Ethylenediamine = C(CN[*:2])N[*:1]; Hyp = O=C(O)[C@@H]1C[C@@H](O)CN1; Phg = N[C@H](C(=O)O)c1ccccc1; CO = O=C([*:1])[*:2]; Bn = c1ccc(C*)cc1

Assays:
[1] = Pharmacokinetic profile in rats, subcutaneous; assay type: in vivo; settings: rat, sc, male rats, 1 mg/kg, plasma; for half-life: read-out: t½ (converted)
Procedure: Assay for the Pharmacokinetic Profile
The compounds of the invention also show, in rats, a very favourable pharmacokinetic profile. The pharmacokinetic profile was measured by administering the compounds to male rates, subcutaneously, at the dose of 1 mg/kg (CD, Sprague Dawley; 200-250 g). Blood samples were collected, at different times, up to 72 hours after the administration. The concentrations of the compound under examination were measured in the separated plasma samples, by means of an LC-MS/MS analysis method and the values were processed according to a non-compartmental model using the software “Kinetica”. In the following table, the main pharmacokinetic parameters obtained with the compound of example 1 are reported, compared with those obtained with PASIREOTIDE, another stable analogue of somatostatin, currently in clinical development phase (PASIREOTIDE was prepared by following the process described in WO2002010192).

[2] = target: T1, hSSTR2 (Homo sapiens, UniProt P30874); assay: Binding assay, displacement of 3-[125I]iodotyrosyl11 Somatostatin-14; settings: cell membranes, 60 min at 25° C.
T1 construct: expressed in transfected cells
T1 sequence (P30874 whole entry): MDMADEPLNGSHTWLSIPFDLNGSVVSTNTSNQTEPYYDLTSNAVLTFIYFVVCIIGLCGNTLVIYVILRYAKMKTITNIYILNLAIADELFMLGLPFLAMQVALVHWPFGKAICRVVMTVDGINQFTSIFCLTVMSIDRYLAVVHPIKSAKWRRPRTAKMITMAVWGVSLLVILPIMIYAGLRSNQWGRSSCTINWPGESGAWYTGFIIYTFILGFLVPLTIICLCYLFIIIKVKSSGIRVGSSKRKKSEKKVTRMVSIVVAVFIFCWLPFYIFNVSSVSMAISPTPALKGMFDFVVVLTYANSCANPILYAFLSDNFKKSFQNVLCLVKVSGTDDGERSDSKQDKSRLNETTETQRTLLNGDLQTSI
Procedure: (§1) The binding assays were carried out, as is explained below, by using preparations of recombinant human receptors, hSSTR1, hSSTR2, hSSTR3 and hSSTR5, obtained from cell membranes (for example CHO) transfected according to standard methods.
(§2) The membranes are incubated in duplicate for 60 min. at 25° C. with 3-[125I]iodotyrosyl11Somatostatin-14 (Amersham, IM161, 2000 Ci/mmol) as radioligand and with increasing concentrations of the compound under examination, in 25 mM Hepes (pH 7.4) buffer, containing 5 mM MgCl2, 1 mM CaCl2, 10 μg/ml of Saponin, 0.5% BSA. The incubation is terminated by means of filtration with a Filtermate Harvester (Perkin Elmer) through GF/B filters, which are then washed 6 times with buffer (25 mM Hepes pH 7.4, 5 mM MgCl2, 1 mM CaCl2). The radioactivity of the filters is measured in a TopCount™ or MicroBeta™ reader for 1 min/well after having added the Microscint 20 liquid scintillation (Packard) and incubated for 15 min. in an orbital stirrer. The results are expressed as specific binding percentage of the radio-marked ligand, in the presence of increasing concentrations of the compound under examination. The IC50 values were calculated by using the “GraphPad Prism” software (IC50=concentration of compound necessary for obtaining half of the maximum inhibition, in the competitive binding test described above).

[3] = target: T2, hSSTR5 (Homo sapiens, UniProt P35346); assay: as above; settings: cell membranes, 60 min at 25° C.
T2 construct: expressed in transfected cells
T2 sequence (P35346 whole entry): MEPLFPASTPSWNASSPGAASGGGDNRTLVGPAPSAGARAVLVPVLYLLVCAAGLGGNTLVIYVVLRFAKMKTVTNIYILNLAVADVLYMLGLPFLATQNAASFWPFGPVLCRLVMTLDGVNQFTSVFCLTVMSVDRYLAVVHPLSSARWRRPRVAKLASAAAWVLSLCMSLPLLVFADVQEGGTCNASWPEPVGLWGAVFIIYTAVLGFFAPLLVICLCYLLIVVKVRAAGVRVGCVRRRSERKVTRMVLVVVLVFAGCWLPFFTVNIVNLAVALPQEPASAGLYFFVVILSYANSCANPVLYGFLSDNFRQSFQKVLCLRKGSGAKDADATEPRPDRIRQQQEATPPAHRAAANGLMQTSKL
Procedure: as §1, §2

[4] = target: T3, hSSTR3 (Homo sapiens, UniProt P32745); assay: as above; settings: cell membranes, 60 min at 25° C.
T3 construct: expressed in transfected cells
T3 sequence (P32745 whole entry): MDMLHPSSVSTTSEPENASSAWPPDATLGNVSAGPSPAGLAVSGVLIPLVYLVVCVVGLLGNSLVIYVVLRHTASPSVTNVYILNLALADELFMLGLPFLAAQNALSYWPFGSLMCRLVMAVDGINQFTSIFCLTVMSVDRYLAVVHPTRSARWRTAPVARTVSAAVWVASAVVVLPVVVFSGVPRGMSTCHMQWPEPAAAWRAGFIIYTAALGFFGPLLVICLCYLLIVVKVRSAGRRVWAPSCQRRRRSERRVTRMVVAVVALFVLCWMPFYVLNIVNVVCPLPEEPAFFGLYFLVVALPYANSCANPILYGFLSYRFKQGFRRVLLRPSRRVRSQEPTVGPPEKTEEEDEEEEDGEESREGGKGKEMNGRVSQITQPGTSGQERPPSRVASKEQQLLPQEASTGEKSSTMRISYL
Procedure: as §1, §2

[5] = target: T4, hSSTR1 (Homo sapiens, UniProt P30872); assay: as above; settings: recombinant human receptor, cell membranes; 60 min at 25° C.
T4 construct: expressed in transfected cells
T4 sequence (P30872 whole entry): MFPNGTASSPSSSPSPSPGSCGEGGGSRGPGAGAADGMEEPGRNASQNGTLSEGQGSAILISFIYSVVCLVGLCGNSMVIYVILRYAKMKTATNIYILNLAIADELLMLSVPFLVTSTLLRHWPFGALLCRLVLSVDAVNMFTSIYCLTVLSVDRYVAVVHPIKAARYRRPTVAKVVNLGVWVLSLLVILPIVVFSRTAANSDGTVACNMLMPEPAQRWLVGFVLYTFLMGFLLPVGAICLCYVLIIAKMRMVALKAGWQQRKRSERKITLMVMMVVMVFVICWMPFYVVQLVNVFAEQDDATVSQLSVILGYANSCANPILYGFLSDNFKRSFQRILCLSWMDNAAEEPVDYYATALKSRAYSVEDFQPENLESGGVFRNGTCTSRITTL
Procedure: as §1, §2

[6] = test system: rat pituitary cells; settings: 3 h
[7] = test system: release of GH stimulated by Nembutal; assay: In vivo inhibition of the GH production stimulated by barbiturates (Nembutal); design: species or system rat; settings: male rats, subcutaneous
Procedure: Assay for the In Vivo Inhibition of the GH Production, Stimulated by Barbiturates
The compounds are administrated subcutaneously, at different doses, in male rats (CD, Harlan Italy). Blood samples are collected, at different times, one hour after the animals were anesthetised by means of intraperitoneal administration of Nembutal (60 mg/kg); the hormone levels are measured by means of the ELISA test. In the animals treated with the compounds of the invention, at doses from 5 to 250 μg/kg, there is a decrease of the produced GH levels.

[8] = comparison value, source and conditions not stated; cited from earlier work
[9] = recombinant human receptor, read-out: IC50 (nM) hSSTR2
[10] = recombinant human receptor, read-out: IC50 (nM) hSSTR5
[11] = recombinant human receptor, read-out: IC50 (nM) hSSTR3

Molecule	IC50 [2, 9] [nM]	IC50 [3, 10] [nM]	IC50 [4, 11] [nM]	IC50 [5] [nM]	other results
COc1cc2cccc(OC)c2cc1CC1NC(=O)[C@H](Cc2ccccc2)NC(=O)[C@@H]2C[C@@H](OC(=O)NCCN)CN2C(=O)[C@H](Cc2ccccc2)NC(=O)[C@H](Cc2ccc(OCc3ccccc3)cc2)NC(=O)[C@H](CCCCN)NC1=O (single isomer, unassigned) [Example 5, cyclo[Tyr(Bn)-Phe-Pro(4-OCONH(CH2)2NH2)-Phe-(D,L)3,8MNal-Lys]]	9.3	0.42	0.31	10.8	AUC ([1]; CD, Sprague Dawley): 2880 ng·h/mL; AUC(0-t) ([1]; CD, Sprague Dawley): 2730 ng·h/mL; Cmax ([1]; CD, Sprague Dawley): 224 ng/mL; MRT ([1]; CD, Sprague Dawley): 19 h; Tmax ([1]; CD, Sprague Dawley): 4 h; half-life ([1]; CD, Sprague Dawley): 31.3 h; IC50 [6]: 1.3 nM
COc1cc2cccc(OC)c2cc1CC1NC(=O)[C@H](Cc2ccccc2)NC(=O)[C@@H]2C[C@@H](OC(=O)NCCN)CN2C(=O)[C@H](Cc2ccccc2)NC(=O)[C@H](COCc2ccccc2)NC(=O)[C@H](CCCCN)NC1=O (single isomer, unassigned) [Example 15, cyclo[Ser(Bn)-Phe-Pro(4-OCONH(CH2)2NH2)-Phe-(D,L)3,8MNal-Lys]]	7	1.62	1.8	1	
COc1cc(CC2NC(=O)[C@H](Cc3ccccc3)NC(=O)[C@@H]3C[C@@H](OC(=O)NCCN)CN3C(=O)[C@H](Cc3ccccc3)NC(=O)[C@H](Cc3ccc(OCc4ccccc4)cc3)NC(=O)[C@H](CCCCN)NC2=O)c(OC)c2ccccc12 (single isomer, unassigned) [Example 8, cyclo[Tyr(Bn)-Phe-Pro(4-OCONH(CH2)2NH2)-Phe-(D,L)1,4-MNal-Lys]]	26.6	9.78	2.92	19.1	
COc1ccc(OC)c(CCC2NC(=O)[C@H](Cc3ccccc3)NC(=O)[C@@H]3C[C@@H](OC(=O)NCCN)CN3C(=O)[C@H](Cc3ccccc3)NC(=O)[C@H](Cc3ccc(OCc4ccccc4)cc3)NC(=O)[C@H](CCCCN)NC2=O)c1 (single isomer, unassigned) [Example 6, cyclo[Tyr(Bn)-Phe-Pro(4-OCONH(CH2)2NH2)-Phe-(D,L)2,5 MhPhe-Lys]]	25.8	0.64	0.52	10	
Fmoc-(D/L) 3-(3,8-dimethoxy-Naphthalene-2-yl)-Alanine [Example 1]					reduction of the release of GH ([7]; 5 μg/kg, six hours after the administration): 55%; reduction of GH, duration ([7]; 125 μg/kg, 24 hours after the administration): still measurable
NCCCC[C@@H]1NC(=O)[C@@H](Cc2c[nH]c3ccccc23)NC(=O)[C@H](c2ccccc2)NC(=O)[C@@H]2C[C@@H](OC(=O)NCCN)CN2C(=O)[C@H](Cc2ccccc2)NC(=O)[C@H](Cc2ccc(OCc3ccccc3)cc2)NC1=O [PASIREOTIDE, reference compound] (cyclo([Hyp]([CO-Ethylenediamine])[Phg][dW]KY(Bn)F))					AUC ([1]; Sprague Dawley (CD)): 2800 ng·h/mL; AUC(0-t) ([1]; Sprague Dawley (CD)): 2780 ng·h/mL; Cmax ([1]; Sprague Dawley (CD)): 668 ng/mL; MRT ([1]; Sprague Dawley (CD)): 4.87 h; Tmax ([1]; Sprague Dawley (CD)): 2 h; half-life ([1]; Sprague Dawley (CD)): 24.4 h
COc1cc2cccc(OC)c2cc1CC1NC(=O)[C@H](Cc2ccc(O)cc2)NC(=O)[C@@H]2C[C@@H](OC(=O)NCCN)CN2C(=O)[C@H](Cc2ccccc2)NC(=O)[C@H](Cc2ccc(OCc3ccccc3)cc2)NC(=O)[C@H](CCCCN)NC1=O (stereo partly shown) [Example 14, cyclo[Tyr(Bn)-Phe-Pro(4-OCONH(CH2)2NH2)-Tyr-(D,L)3,8MNal-Lys]]					IC50 ([2]; IC50 (nM) hSSTR2, recombinant human receptor): 1.8 nM; IC50 ([3]; IC50 (nM) hSSTR5, recombinant human receptor): 0.36 nM; IC50 ([4]; IC50 (nM) hSSTR3, recombinant human receptor): 0.35 nM
COc1cc(CC2NC(=O)[C@H](Cc3ccccc3)NC(=O)[C@@H]3C[C@@H](OC(=O)NCCN)CN3C(=O)[C@H](Cc3ccccc3)NC(=O)[C@H](Cc3ccc(OCc4ccccc4)cc3)NC(=O)[C@H](CCCCN)NC2=O)c(OC)c2ccccc12 (single isomer, unassigned) [Example 9, cyclo[Tyr(Bn)-Phe-Pro(4-OCONH(CH2)2NH2)-Phe-(D,L)1,4-MNal-Lys]]	9.9	1.9	2.34	32.4	
C[C@@H](O)[C@@H]1NC(=O)[C@H](CCCCN)NC(=O)[C@@H](Cc2c[nH]c3ccccc23)NC(=O)[C@H](Cc2ccccc2)NC(=O)[C@@H](NC(=O)[C@H](N)Cc2ccccc2)CSSC[C@@H](C(=O)N[C@H](CO)[C@@H](C)O)NC1=O [OCTREOTIDE]					t½ [8]: about 2 hours
CNCCNC(=O)O[C@@H]1C[C@H]2C(=O)N[C@@H](Cc3ccccc3)C(=O)NC(Cc3cc4c(OC)cccc4cc3OC)C(=O)N[C@@H](CCCCN)C(=O)N[C@@H](Cc3ccc(OCc4ccccc4)cc3)C(=O)N[C@@H](Cc3ccccc3)C(=O)N2C1 (single isomer, unassigned) [Example 7, cyclo[Tyr(Bn)-Phe-Pro (4-OCONH(CH2)2NHCH3)-Phe-(D,L)3,8MNal-Lys]]	9.2	0.97	1.33	5.8	
